Data on one molecule can be found in patent US20230190731A1, “FORMULATION COMPRISING HIF PROLYL HYDROXYLASE INHIBITORS” (ZYDUS LIFESCIENCES LIMITED, priority 2020, published 2023).

Data set [1] is described as follows: Solubility of compounds of formula (Ia) in various media. The data set is classed as physicochemical.
For data set [2], the system named is hypoxia inducible factor (HIF) prolyl hydroxylase. Nature of the data set: Inhibition of hypoxia inducible factor (HIF) prolyl hydroxylase (statement only). The data set is classed as biochemical.

Take `O=C(O)CNC(=O)c1c(O)c2ccccc2n(OCC2CC2)c1=O` [Compound (Ia)]: the solubility entry in data set [1] (in 0.1 N HCL) is recorded as “insoluble”; in data set [1] (in N,N-dimethyl formamide) it was “freely soluble”; in data set [1] (in alkaline aqueous condition), “soluble”; in data set [1] (in water), “partially soluble”. Further, the “inhibitor of HIF prolyl hydroxylase” value in data set [2] is “potent inhibitor”.
